In ChEMBL document CHEMBL1201862, “PubChem BioAssay data set” (2004):
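Five concentrations, 48 hours, 96-well plates. GI50 is the concentration that inhibits growth by half.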 Calls of active or inactive are those of the source. No stated cut-off is given here; in the data, active = GI50 up to about 1.1 µM and inactive = higher.

Tests used:
Assay in all cases: NCI-60 cell line screen, 48 h
CCRF-CEM = tested on: CCRF-CEM
DMS-114 = tested on: DMS-114
U-251 = tested on: U-251
SNB-19 = tested on: SNB-19
A549 = tested on: A549
SK-MEL-2 = tested on: SK-MEL-2
SNB-75 = tested on: SNB-75
SN12C = tested on: SN12C
HCT-15 = tested on: HCT-15
DMS-273 = tested on: DMS-273
NCI-H23 = tested on: NCI-H23
CAKI-1 = tested on: CAKI-1
OVCAR-4 = tested on: OVCAR-4
IGROV-1 = tested on: IGROV-1
XF498 = tested on: XF498
EKVX = tested on: EKVX
UACC-257 = tested on: UACC-257

| SMILES | GI50 (CCRF-CEM) | GI50 (DMS-114) | GI50 (U-251) | GI50 (SNB-19) | GI50 (A549) | GI50 (SK-MEL-2) | GI50 (SNB-75) | GI50 (SN12C) | GI50 (HCT-15) | GI50 (DMS-273) | GI50 (NCI-H23) | GI50 (CAKI-1) | GI50 (OVCAR-4) | GI50 (IGROV-1) | GI50 (XF498) | GI50 (EKVX) | GI50 (UACC-257) |
| --- | --- | --- | --- | --- | --- | --- | --- | --- | --- | --- | --- | --- | --- | --- | --- | --- | --- |
| O=C1CC(=O)N(CCc2ccccc2)S(=O)(=O)N1CCc1ccccc1 | 17.2 µM (inactive) | 21.4 µM (inactive) | 16.9 µM (inactive) | 29.2 µM (inactive) | 24.4 µM (inactive) | 22.6 µM (inactive) | 23.1 µM (inactive) | 33 µM (inactive) | 33.2 µM | 22.5 µM (inactive) | 25 µM (inactive) | 22.2 µM (inactive) | 19.8 µM (inactive) | 20.1 µM (inactive) |  |  |  |
| O=C1CNC(=O)c2[nH]cnc2N1 | > 100 µM (inactive) | > 100 µM (inactive) | > 100 µM (inactive) | > 100 µM (inactive) | > 100 µM (inactive) |  | > 100 µM (inactive) | > 100 µM (inactive) | > 100 µM | > 100 µM (inactive) | > 100 µM (inactive) |  | > 100 µM (inactive) | > 100 µM (inactive) | 49.3 µM (inactive) | > 100 µM (inactive) |  |
| NNC(=O)/C(=C/c1ccc(Cl)cc1Cl)NC(=O)c1ccccc1 | 79.8 µM (inactive) | > 100 µM (inactive) | > 100 µM (inactive) | > 100 µM (inactive) | > 100 µM (inactive) | > 100 µM (inactive) | > 100 µM (inactive) | > 100 µM (inactive) | > 100 µM | > 100 µM (inactive) | > 100 µM (inactive) | > 100 µM (inactive) | > 100 µM (inactive) | > 100 µM (inactive) | > 100 µM (inactive) | < 0.01 µM (active) | > 100 µM (inactive) |
| CSCCC(C(=O)O)N(CC1(O)OCC(O)C(O)C1O)N=O (stereo unspecified) | > 100 µM (inactive) | > 100 µM (inactive) | > 100 µM (inactive) |  | > 100 µM (inactive) | > 100 µM (inactive) | > 100 µM (inactive) |  |  | > 100 µM (inactive) | > 100 µM (inactive) |  |  | > 100 µM (inactive) | > 100 µM (inactive) | > 100 µM (inactive) | > 100 µM (inactive) |
| CS(=O)(=O)OCCN1CCN(C(=O)c2cccc3c(Nc4ccc(S(=O)(=O)N=C(N)N)cc4)c4ccccc4nc23)CC1 | > 100 µM (inactive) | > 100 µM (inactive) | > 100 µM (inactive) | > 100 µM (inactive) | > 100 µM (inactive) | > 10 µM (inactive) | > 100 µM (inactive) | > 100 µM (inactive) | > 100 µM | > 100 µM (inactive) | > 100 µM (inactive) | > 100 µM (inactive) | > 100 µM (inactive) | > 100 µM (inactive) | > 100 µM (inactive) |  | > 100 µM (inactive) |
| CN1C(c2ccccc2)CS(=O)(=O)CS1(=O)=O (stereo unspecified) |  | > 100 µM (inactive) | > 100 µM (inactive) | > 100 µM (inactive) | > 100 µM (inactive) | > 100 µM (inactive) | > 100 µM (inactive) | > 100 µM (inactive) | > 100 µM | > 100 µM (inactive) | > 100 µM (inactive) | > 100 µM (inactive) | > 100 µM (inactive) | > 100 µM (inactive) | > 100 µM (inactive) | > 100 µM (inactive) | > 100 µM (inactive) |
| N#CCC(=O)NC1C2CC3CC(C2)CC1C3 (stereo unspecified) | 18.7 µM (inactive) | 16 µM (inactive) | 16.2 µM (inactive) | 17.3 µM (inactive) | 34 µM (inactive) | 19.5 µM (inactive) | 17.2 µM (inactive) | 16.1 µM (inactive) | 17.2 µM | 21.6 µM (inactive) | 16.6 µM (inactive) | 18.6 µM (inactive) | 21.2 µM (inactive) | 25.4 µM (inactive) |  | 18.9 µM (inactive) | 20.9 µM (inactive) |
| CCN(CC)CCCNc1nccc2c(C)c3c(cc12)c1cnccc1n3C | < 0.01 µM (active) | 0.0501 µM (active) | 0.367 µM (active) | 0.288 µM (active) | 0.0526 µM (active) |  | 0.427 µM (active) | 0.238 µM (active) | 0.0468 µM | 0.0353 µM (active) | 0.179 µM (active) | 0.144 µM (active) | 0.0282 µM (active) | 0.4 µM (active) | 0.16 µM (active) | 0.294 µM (active) |  |
| O=C(NC12CC3CC(CC(C3)C1)C2)C(=O)c1c[nH]c2ccc(Cl)cc12 | 46.3 µM (inactive) | 66.8 µM (inactive) | 56.5 µM (inactive) | 26.8 µM (inactive) | > 100 µM (inactive) | 26.7 µM (inactive) | 20.9 µM (inactive) | 56.1 µM (inactive) | 21.2 µM | 16.8 µM (inactive) | > 100 µM (inactive) |  | 21.2 µM (inactive) | 54.1 µM (inactive) | 14.7 µM (inactive) | > 100 µM (inactive) | 97.1 µM (inactive) |
| N#Cc1c(CC(=O)O)cc(=O)n2c1[nH]c1ccccc12 |  | > 100 µM (inactive) | > 100 µM (inactive) | > 100 µM (inactive) | > 100 µM (inactive) | > 100 µM (inactive) | > 100 µM (inactive) | > 100 µM (inactive) | > 100 µM | > 100 µM (inactive) | > 100 µM (inactive) | > 100 µM (inactive) | > 100 µM (inactive) | > 100 µM (inactive) |  | > 100 µM (inactive) | > 100 µM (inactive) |
| FC(F)(F)c1ccc2nc(Nc3ccc(Cl)c(Cl)c3)c(-c3ccccc3)nc2c1 | 30.5 µM (inactive) |  | 7.16 µM (inactive) | 74 µM (inactive) | 17.1 µM (inactive) | > 100 µM (inactive) |  | 75.2 µM (inactive) | 0.659 µM | 6.55 µM (inactive) | > 100 µM (inactive) |  |  |  | 31.2 µM (inactive) | > 100 µM (inactive) | 85.5 µM (inactive) |
| CN1C(=O)CC(c2cccc(C3CC(=O)N(C)C3=O)n2)C1=O (stereo unspecified) | > 100 µM (inactive) | > 100 µM (inactive) | > 100 µM (inactive) | > 100 µM (inactive) | > 100 µM (inactive) | > 100 µM (inactive) | > 100 µM (inactive) | > 100 µM (inactive) | > 100 µM | > 100 µM (inactive) | > 100 µM (inactive) | > 100 µM (inactive) | > 100 µM (inactive) | > 100 µM (inactive) |  | > 100 µM (inactive) | > 100 µM (inactive) |
| CCOc1ccccc1N1C(=O)C(=O)C(c2nc3ccccc3o2)C(=O)C1=O | > 100 µM (inactive) | > 100 µM (inactive) | > 100 µM (inactive) | > 100 µM (inactive) | 48.6 µM (inactive) | > 100 µM (inactive) | 42.6 µM (inactive) | 93.8 µM (inactive) | > 100 µM | > 100 µM (inactive) | > 100 µM (inactive) | 66.8 µM (inactive) | 15.7 µM (inactive) | > 100 µM (inactive) |  | 71.9 µM (inactive) | > 100 µM (inactive) |
| CC(=O)Nc1[nH]c(=O)[nH]c(=O)c1N(C(C)=O)C(C)=O | > 100 µM (inactive) | > 100 µM (inactive) | > 100 µM (inactive) | > 100 µM (inactive) | > 100 µM (inactive) | > 100 µM (inactive) |  | > 100 µM (inactive) | > 100 µM | > 100 µM (inactive) |  | > 100 µM (inactive) | > 100 µM (inactive) | > 100 µM (inactive) | > 100 µM (inactive) | > 100 µM (inactive) | > 100 µM (inactive) |
| O=C1c2ccccc2C(=O)c2cc3c(cc21)C[S+]([O-])C3 | > 100 µM (inactive) | > 100 µM (inactive) | > 100 µM (inactive) | > 100 µM (inactive) | > 100 µM (inactive) | > 100 µM (inactive) | > 100 µM (inactive) | 20 µM (inactive) | > 10 µM | > 100 µM (inactive) | > 100 µM (inactive) | > 100 µM (inactive) | > 100 µM (inactive) | > 100 µM (inactive) |  | > 100 µM (inactive) | > 100 µM (inactive) |
| Clc1cc(Cl)cc(Nc2nc3ccccc3nc2-c2cccs2)c1 | > 100 µM (inactive) |  | > 10 µM (inactive) | > 10 µM (inactive) | 38.5 µM (inactive) | > 100 µM (inactive) | 32.4 µM (inactive) | 54.3 µM (inactive) | > 100 µM | 14.2 µM (inactive) | 28.8 µM (inactive) |  |  |  | 28.1 µM (inactive) | 41.3 µM (inactive) | 23.7 µM (inactive) |
| C=C(C)C1CC=C(C)C(O)([C@@]2(O)C[C@H](C(=C)C)CC=C2C)C1 (stereo partly specified) | 20.1 µM (inactive) | 37.3 µM (inactive) | 16.7 µM (inactive) | 32.1 µM (inactive) | 29.7 µM (inactive) | 17.4 µM (inactive) | 15.4 µM (inactive) | 18.3 µM (inactive) | > 10 µM | 16.2 µM (inactive) | 17.3 µM (inactive) | 13.5 µM (inactive) | 19 µM (inactive) | 16.6 µM (inactive) | 14 µM (inactive) |  | 19.3 µM (inactive) |
| C=C(C)C1C/C=C(/C)CCCC2(CCC3=C(CC(C(=C)C)C/C=C(/C)CCC3)O2)C(=O)C1 (stereo unspecified) | > 100 µM (inactive) | > 100 µM (inactive) | > 100 µM (inactive) | > 100 µM (inactive) | > 100 µM (inactive) | > 100 µM (inactive) | > 100 µM (inactive) | > 100 µM (inactive) | > 100 µM | > 100 µM (inactive) | > 100 µM (inactive) |  | > 100 µM (inactive) | > 100 µM (inactive) | > 100 µM (inactive) | > 100 µM (inactive) | > 100 µM (inactive) |
| O=C(O)CN(c1ccccc1)S(=O)(=O)c1ccc([N+](=O)[O-])cc1 | > 100 µM (inactive) |  | > 100 µM (inactive) | > 100 µM (inactive) | > 100 µM (inactive) | > 100 µM (inactive) |  | > 100 µM (inactive) | > 100 µM | > 100 µM (inactive) | > 100 µM (inactive) | > 100 µM (inactive) | > 100 µM (inactive) | > 100 µM (inactive) | > 100 µM (inactive) | > 100 µM (inactive) | > 100 µM (inactive) |
